Data from patent publication US4727080A, “1-substituted derivatives of 6-fluoro-7-(pyrrol-1-yl)-1,4-dihydro-4-oxoquinoline-3-carboxylic acid, their preparation and their application as drugs” (Provesan S.A., priority 1984, dated 1988).
In brackets after ≈: the same amount, converted by molar mass.

Assays:
[1] = test system: Enterobacter cloacae CHSP-20; assay: "In vitro" MIC, Enterobacter cloacae; assay type: cell-based; conditions: CHSP20; Enterobacter cloacae CHSP-20; dextrose agar, 37° C., 20 hours; read-out: "In vitro" MIC
Procedure: (§1) Antimicrobial pharmacological activity (G. L. Daquet and Y. A. Chabbect, Techniques en bacteriologie (Techniques in bacteriology), vol. 3, Flammarion Medecine-Sciences, Paris, 1972, and W. B. Hugo and A. D. Rusell, Pharmaceutical Microbiology, Blackwell Scientific Publications, London (1977).
Enterobacter cloacae CHSP-20
(§2) A streak culture of each of the microorganisms is formed in tubes of antibiotics agar no. 1 and incubated for 20 hours at 37° C. A culture loop is then taken and a culture is formed in a tryptone-soya broth and incubated for 20 hours at 37° C. The resulting culture is diluted to 1/4 with Ringer's physiological solution to give a standardized suspension of 10^5 ufc/ml for each organism.
(§3) Starting from a solution of 1000 μg/ml in 0.1N NaOH, each product is diluted successively in dextrose agar (melted beforehand and kept at 50° C.) to give the following concentrations: 64-32-16-8-4-2-1-0.5-0.25-0.125 μg of derivative/ml of medium.
(§4) After this, each concentration of each product is divided up into Petri dishes of 10 cm diameter at a rate of 10 ml of medium per dish and using as many dishes as there are microorganisms to be tested.
(§5) Once the medium has cooled, the dishes are treated with the inoculations at a rate of 0.4 ml of inoculation per dish. They are spread out with a Drigalski loop and the supernatant is collected. The inoculated dishes are incubated at 37° C. for 20 hours.

[2] = test system: Sarcina lutea ATCC 9341; assay: "In vitro" MIC, Sarcina lutea; assay type: cell-based; conditions: Micrococcus luteus, ATCC9341; Sarcina lutea ATCC 9341; dextrose agar, 37° C., 20 hours; read-out: "In vitro" MIC
Procedure: as §1, §2, §3, §4, §5

[3] = test system: Salmonella typhimurium AMES 100; assay: "In vitro" MIC, Salmonella typhimurium AMES 100; assay type: cell-based; conditions: Salmonella enterica; Salmonella typhimurium AMES 100; dextrose agar, 37° C., 20 hours; read-out: "In vitro" MIC
Procedure: as §1
Salmonella typhimurium AMES 100
as §2, §3, §4, §5

[4] = test system: Shigella flexnerii; assay: "In vitro" MIC, Shigella flexnerii; assay type: cell-based; conditions: 20 h, read-out: "In vitro" MIC
Procedure: as §1, §2, §3, §4, §5

[5] = test system: Enterobacter aerogenes ATCC 15038; assay: "In vitro" MIC, Enterobacter aerogenes; assay type: cell-based; conditions: Klebsiella aerogenes, ATCC15038; Enterobacter aerogenes ATCC 15038; dextrose agar, 37° C., 20 hours; read-out: "In vitro" MIC
Procedure: as §1
Enterobacter aerogenes ATCC 15038
as §2, §3, §4, §5

[6] = test system: Bacillus subtilis ATCC 6633; assay: "In vitro" MIC, Bacillus subtilis; assay type: cell-based; conditions: ATCC6633; Bacillus subtilis ATCC 6633; dextrose agar, 37° C., 20 hours; read-out: "In vitro" MIC
Procedure: as §1
Bacillus subtilis ATCC 6633
as §2, §3, §4, §5

[7] = test system: Citrobacter freundii ATCC 11606; assay: "In vitro" MIC, Citrobacter freundii; assay type: cell-based; conditions: ATCC11606; Citrobacter freundii ATCC 11606; dextrose agar, 37° C., 20 hours; read-out: "In vitro" MIC
Procedure: as §1
Citrobacter freundii ATCC 11606
as §2, §3, §4, §5

[8] = test system: Streptococcus faecalis ATCC 10541; assay: "In vitro" MIC, Streptococcus faecalis; assay type: cell-based; conditions: Enterococcus faecalis, ATCC10541; Streptococcus faecalis ATCC 10541; dextrose agar, 37° C., 20 hours; read-out: "In vitro" MIC
Procedure: as §1
Streptococcus faecalis ATCC 10541
as §2, §3, §4, §5

[9] = test system: Klebsiella pneumoniae ATCC 10031; assay: "In vitro" MIC, Klebsiella pneumoniae; assay type: cell-based; conditions: ATCC10031; Klebsiella pneumoniae ATCC 10031; dextrose agar, 37° C., 20 hours; read-out: "In vitro" MIC
Procedure: as §1
Klebsiella pneumoniae ATCC 10031
as §2, §3, §4, §5

[10] = test system: Escherichia coli R-1513; assay: "In vitro" MIC, Escherichia coli R-1513; assay type: cell-based; conditions: R1513; Escherichia coli R-1513; dextrose agar, 37° C., 20 hours; read-out: "In vitro" MIC
Procedure: as §1, §2, §3, §4, §5

[11] = test system: Pseudomonas aeruginosa 25115; assay: "In vitro" MIC, Pseudomonas aeruginosa 25115; assay type: cell-based; conditions: Pseudomonas aeruginosa 25115; dextrose agar, 37° C., 20 hours; read-out: "In vitro" MIC
Procedure: as §1
Pseudomonas aeruginosa 25115
as §2, §3, §4, §5

[12] = test system: Staphylococcus aureus ATCC 5488/23; assay: "In vitro" MIC, Staphylococcus aureus ATCC 5488/23; assay type: cell-based; conditions: ATCC5488; Staphylococcus aureus ATCC 5488/23; dextrose agar, 37° C., 20 hours; read-out: "In vitro" MIC
Procedure: as §1
Staphylococcus aureus ATCC 5488/23
as §2, §3, §4, §5

[13] = test system: Proteus morganii CHSP-16; assay: "In vitro" MIC, Proteus morganii; assay type: cell-based; conditions: Morganella morganii, CHSP16; Proteus morganii CHSP-16; dextrose agar, 37° C., 20 hours; read-out: "In vitro" MIC
Procedure: as §1, §2, §3, §4, §5

[14] = test system: Salmonella typhimurium AMES 98; assay: "In vitro" MIC, Salmonella typhimurium AMES 98; assay type: cell-based; conditions: Salmonella enterica; Salmonella typhimurium AMES 98; dextrose agar, 37° C., 20 hours; read-out: "In vitro" MIC
Procedure: as §1
Salmonella typhimurium AMES 98
as §2, §3, §4, §5

[15] = test system: Escherichia coli ATCC 10536; assay: "In vitro" MIC, Escherichia coli ATCC 10536; assay type: cell-based; conditions: ATCC10536; Escherichia coli ATCC 10536; dextrose agar, 37° C., 20 hours; read-out: "In vitro" MIC
Procedure: as §1
Escherichia coli ATCC 10536
as §2, §3, §4, §5

[16] = test system: Pseudomonas aeruginosa ADSA 47; assay: "In vitro" MIC, Pseudomonas aeruginosa ADSA 47; assay type: cell-based; conditions: ADSA47; Pseudomonas aeruginosa ADSA 47; dextrose agar, 37° C., 20 hours; read-out: "In vitro" MIC
Procedure: as §1
Pseudomonas aeruginosa ADSA 47
as §2, §3, §4, §5

[17] = test system: Staphylococcus aureus ATCC 25178; assay: "In vitro" MIC, Staphylococcus aureus ATCC 25178; assay type: cell-based; conditions: ATCC25178; Staphylococcus aureus ATCC 25178; dextrose agar, 37° C., 20 hours; read-out: "In vitro" MIC
Procedure: as §1
Staphylococcus aureus ATCC 25178
as §2, §3, §4, §5

[18] = Acute toxicity to mice; conditions: mouse, in vivo, ip, suspension in 5% gum arabic, mortality over 7 days
Procedure: The experimental animals used to determine this toxicity were albino mice of the C.F.L.P. strain and of both sexes, weighing between 19 and 25 grams. After an 18-hour fasting period with water "ad libitum", the derivatives forming the subject of the present invention are administered intraperitoneally as a suspension in 5% gum arabic. The volume of suspension administered was 0.4 ml/20 grams (20 ml/kg) in all cases, the concentration of the suspension being changed according to the dose administered.
One hour after administration of the derivatives, the animals are given a standard Panlab rat-mouse food. The mortality was observed over a period of 7 days. Differences in mortality between the sexes were not observed with any of the products.

[19] = test system: Serratia marcescens ATTC 13880; assay: "In vitro" MIC, Serratia marcescens; assay type: cell-based; conditions: ATTC13880; Serratia marcescens ATTC 13880; dextrose agar, 37° C., 20 hours; read-out: "In vitro" MIC
Procedure: as §1
Serratia marcescens ATTC 13880
as §2, §3, §4, §5

[20] = test system: Gram-positive cocci; assay: "In vitro" antimicrobial activity compared with nalidixic acid, Gram-positive cocci; assay type: cell-based
Procedure: as §1, §2, §3, §4, §5

[21] = test system: Gram-negative microorganisms; assay: "In vitro" antimicrobial activity compared with nalidixic acid, Gram-negative microorganisms; assay type: cell-based
Procedure: as §1, §2, §3, §4, §5

[22] = test system: Proteus mirabilis ATCC 4675; assay: "In vitro" MIC, Proteus mirabilis; assay type: cell-based; conditions: ATCC4675; Proteus mirabilis ATCC 4675; dextrose agar, 37° C., 20 hours; read-out: "In vitro" MIC
Procedure: as §1
Proteus mirabilis ATCC 4675
as §2, §3, §4, §5

[23] = test system: Micrococcus flavus ATCC 10240; assay: "In vitro" MIC, Micrococcus flavus; assay type: cell-based; conditions: ATCC10240; Micrococcus flavus ATCC 10240; dextrose agar, 37° C., 20 hours; read-out: "In vitro" MIC
Procedure: as §1
Micrococcus flavus ATTC 10240
as §2, §3, §4, §5

Structure (SMILES)	MIC [1] [µg/mL]	MIC [2] [µg/mL]	MIC [3] [µg/mL]	MIC [4] [µg/mL]	MIC [5] [µg/mL]	MIC [6] [µg/mL]	MIC [7] [µg/mL]	MIC [8] [µg/mL]	MIC [9] [µg/mL]	MIC [10] [µg/mL]	MIC [11] [µg/mL]	MIC [12] [µg/mL]	MIC [13] [µg/mL]	MIC [14] [µg/mL]	MIC [15] [µg/mL]	MIC [16] [µg/mL]	MIC [17] [µg/mL]	LD50 at 168 h [18] [mg/kg]	MIC [19] [µg/mL]	"in vitro" activity compared with nalidixic acid [20]	further results
Cn1cc(C(=O)O)c(=O)c2cc(F)c(-n3cccc3)cc21 [Example 1, 6-fluoro-7-(pyrrol-1-yl)-1-methyl-4-oxo-1,4-dihydroquinoline-3-carboxylic acid]	2 (≈ 6.99 µM)	16 (≈ 55.9 µM)	8 (≈ 27.9 µM)	4 (≈ 14 µM)	2 (≈ 6.99 µM)	0.125 (≈ 0.437 µM)	2 (≈ 6.99 µM)	32 (≈ 112 µM)	1 (≈ 3.49 µM)	4 (≈ 14 µM)	16 (≈ 55.9 µM)	0.5 (≈ 1.75 µM)	2 (≈ 6.99 µM)	4 (≈ 14 µM)	0.05 (≈ 0.175 µM)	≥ 32	0.5 (≈ 1.75 µM)	> 800	16 (≈ 55.9 µM)	greater activity towards Gram-positive cocci	activity compared with nalidixic acid [21]: activity of the same order as nalidixic acid; MIC [22]: 4 µg/mL (≈ 14 µM); MIC [23]: 4 µg/mL (≈ 14 µM)
O=C(O)c1cn(CC2CC2)c2cc(-n3cccc3)c(F)cc2c1=O [Example 4, 6-fluoro-7-(pyrrol-1-yl)-1-cyclopropylmethyl-4-oxo-1,4-dihydroquinoline-3-carboxylic acid]	4 (≈ 12.3 µM)	8 (≈ 24.5 µM)	2 (≈ 6.13 µM)	4 (≈ 12.3 µM)	8 (≈ 24.5 µM)	0.125 (≈ 0.383 µM)	16 (≈ 49 µM)	16 (≈ 49 µM)	1 (≈ 3.06 µM)	8 (≈ 24.5 µM)	≥ 32	2 (≈ 6.13 µM)	8 (≈ 24.5 µM)	0.25 (≈ 0.766 µM)	0.25 (≈ 0.766 µM)	≥ 32	1 (≈ 3.06 µM)	> 1600	4 (≈ 12.3 µM)	greater activity towards Gram-positive cocci	activity compared with nalidixic acid [21]: activity of the same order as nalidixic acid; MIC [22]: 32 µg/mL (≈ 98.1 µM); MIC [23]: 1 µg/mL (≈ 3.06 µM)
